Data as given in patent US20060142247A1, “Tricyclic heterocycles” (priority 2004, published 2006).

Target: T1, Aurora A (Homo sapiens, UniProt O14965)
T1 construct: C-terminally Histidine4 (His4)-tagged Aurora A full-length protein; His4 (C)
T1 sequence (O14965 1-403): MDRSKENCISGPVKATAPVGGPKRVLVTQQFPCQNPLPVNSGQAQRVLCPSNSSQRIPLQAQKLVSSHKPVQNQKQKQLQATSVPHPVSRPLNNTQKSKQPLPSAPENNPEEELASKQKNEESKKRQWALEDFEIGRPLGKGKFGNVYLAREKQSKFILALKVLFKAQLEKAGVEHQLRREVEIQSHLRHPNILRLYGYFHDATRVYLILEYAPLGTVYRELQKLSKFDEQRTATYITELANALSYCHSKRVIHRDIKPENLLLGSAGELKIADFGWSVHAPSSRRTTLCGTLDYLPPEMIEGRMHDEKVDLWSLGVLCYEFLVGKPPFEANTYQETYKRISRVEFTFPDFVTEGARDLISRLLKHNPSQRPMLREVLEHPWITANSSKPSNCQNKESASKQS
Assay: IC50 determination for inhibitors of Aurora A (96 MTP-ELISA)
Assay type: biochemical
Details: His4-tagged full-length Aurora A 250 ng/ml, PKB-GSK2 200 nM, ATP 4 μM, 90 min room temperature, read-out: IC50 Aurora A kinase inhibition
Method in brief: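 Full-length C-terminally His4-tagged Aurora A (250 ng/ml) phosphorylates biotinylated GSK3-alpha peptide (200 nM) with 4 μM ATP in pH 7.8 Tris/MgCl2/DTT buffer, 1% DMSO, 90 min at room temperature, EDTA stop. Phospho-Ser21 antibody plus HRP anti-mouse, ABTS absorbance 405/492 nm; IC50 from 8-point curve fit.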

For `CC1(C)C(=O)N(CC(=O)N2CCOCC2)c2cc3[nH]c(-c4n[nH]c5ccccc45)nc3cc21` [Example 40, 2-(1H-Indazol-3-yl)-7,7-dimethyl-5-(2-morpholin-4-yl-2-oxo-ethyl)-5,7-dihydro-3H-imidazo[4,5-f]indol-6-one], the IC50 was 1 to 100 nM.
In the case of `CC1(C)C(=O)N(CC(=O)Nc2ccccc2)c2cc3[nH]c(-c4n[nH]c5ccccc45)nc3cc21` [Example 43, 2-[2-(1H-Indazol-3-yl)-7,7-dimethyl-6-oxo-6,7-dihydro-3H-imidazo[4,5-f]indol-5-yl]-N-phenyl-acetamide], the IC50 is reported as 1 to 100 nM.
`CC1(C)C(=O)N(CC(=O)NO)c2cc3[nH]c(-c4n[nH]c5ccccc45)nc3cc21` [Example 49, N-Hydroxy-2-[2-(1H-indazol-3-yl)-7,7-dimethyl-6-oxo-6,7-dihydro-3H-imidazo[4,5-f]indol-5-yl]-acetamide] gave an IC50 of 1 to 100 nM.
Work on `CC1(C)C(=O)N(CCN)c2cc3[nH]c(-c4n[nH]c5ccccc45)nc3cc21` [Example 52, 5-(2-Amino-ethyl)-2-(1H-indazol-3-yl)-7,7-dimethyl-5,7-dihydro-3H-imidazo[4,5-f]indol-6-one] yielded an IC50 of 1 to 100 nM.
